The term MIC denotes the lowest concentration found to suppress growth. The low end stands for a more susceptible organism, the high end for a less susceptible organism.

What all share (type): cell-based
Experiment [1] concerns Streptococcus aureus (TI-1). Description: Antibacterial activity (IC), agar as in Example 8 (Example 16, Table 49). Conditions: 18 h. The procedure, abridged: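 Compound at final 100, 10 or 1 µg/ml in Mueller-Hinton agar, inoculated with […] aureus (TI-1) at 10^6 CFU/ml and cultured 37°C for 18 h. Inhibition read from medium turbidity; IC given as 100-10, 10-1 or ≤1 µg/ml ranges from 2-fold dilution.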

The subject of another experiment is Pasteurella from fish. Nature of the experiment: Antibacterial activity (IC), agar as in Example 8, media with 1.5% NaCl, 25°C (Example 20, Tables 53-55). Conditions: for MIC: Pasteurella piscicida KP94-02. As for the experimental part:
(§1) The antibacterial action was evaluated by the inhibitory concentration (hereinafter abbreviated as IC) at which propagation of the bacteria cultured at 37°C for 18 hours was inhibited. Inhibition was determined by the turbidity of the medium. The expressions "IC≤100", "≤10", and "≤1" indicate that MIC-equivalent values obtained at the succesive […] dilution of the sample are 100-10 µg/ml, 10-1 µg/ml, and not more than 1 µg/ml, respectively. […] (In the subsequent Examples, the same rule applies correspondingly.) Table 39
(§2) A suitable amount of a sample was dissolved in dimethylsulfoxide (DMSO), after which the resulting solution was diluted with the same amount of sterilized distilled water to prepare a bulk sample of 1,000 µg/ml. Separately, a bacterial liquid for the test (methicillin-resistant Staphylococcus aureus (MRSA) isolated from humans) which had been cultured in Mueller-Hinton broth (product of DIFCO) was prepared and inoculated to a Mueller-Hinton agar (product of DIFCO) containing the sample so that the final inoculation amount of 10^6 CFU/ml was achieved. The final concentrations of the samples were 100, 10, and 1 µg/ml.
(§3) After culturing at 37°C for 18 hours, the antibacterial activity was evaluated in terms of IC in a manner similar to that described in Example 4.
(§4) In a manner similar to that described in Example 8, antibacterial activity of a variety of ketonitrile derivatives shown in Tables 53-55 was measured. The bacteria used for the test were Enterococcus and Pasteurella from fish. The culture conditions were such that the media contained 1.5% NaCl, and the culture temperature was 25°C.

Another experiment concerns Enterococcus from fish. The experiment is described as above. Conditions: for MIC: Enterococcus Seriolicida SE94-002. On the procedure:
as §1, §2, §3, §4

Experiment [2] relates to Staphylococcus aureus (209-P). Nature of the experiment: Antibacterial activity (IC), agar as in Example 8 (Example 15, Table 48). Conditions: 18 h. The procedure, abridged: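 Samples in DMSO, diluted with sterile water, incorporated into Mueller-Hinton agar at 1, 10 and 100 µg/ml final. Bacteria seeded at 10^6 CFU/ml and grown 18 h at 37°C. Inhibition read as turbidity; values reported as IC ranges rather than exact MICs.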

Experiment [3] relates to methicillin-resistant Staphylococcus aureus (MRSA) from humans. Nature of the experiment: Antibacterial activity (IC), agar as in Example 8 (Example 19, Table 52). Conditions: 18 h. As for the experimental part:
as §1, §2, §3
In a manner similar to that described in Example 8, antibacterial activity of a variety of ketonitrile derivatives shown in Table 52 was measured. The bacterium used for the test was methicillin-resistant Staphylococcus aureus (MRSA) from humans.

Experiment [4] deals with Pasteurella multocida (Kobe-6). Description: Antibacterial activity (IC), agar as in Example 8 (Example 17, Table 50). Conditions: 18 h, origin pig. As for the experimental part:
as §1, §2, §3
In a manner similar to that described in Example 8, antibacterial activity of the invention compound was determined. The bacterium used for the test was Pasteurella Kobe-6 (origin: pig, Pasteurella multocida).

For experiment [5], the system named is Staphylococcus aureus 209-P. Description: Antibacterial activity (IC), Mueller-Hinton broth, 96-well microplate (Example 4, Table 39). Conditions: 37°C, 18 hours. As for the experimental part: (§5) A suitable amount of a sample was dissolved in dimethylsulfoxide (DMSO), and the resultant solution was diluted with the same amount of sterilized distilled water to prepare a bulk sample of 1,000 µg/ml. Mueller-Hinton broth (product of DIFCO) was dispensed into each well of 96-well microplate. Thereafter, the bulk specimen was added to the first well of a row, and successively diluted (10-fold each time) with sterilized distilled water. Separately, a bacterial cell suspension for the test (Staphylococcus aureus 209-P) which had been cultured in the above-mentioned broth overnight at 37°C was inoculated to each well so that the final inoculation amount of 10^6 CFU/ml was attained. The final concentrations of the samples were 100, 10, and 1 µg/ml.
as §1

For experiment [6], the system named is Pasteurella multocida (Kobe-6). Nature of the experiment: Antibacterial activity (IC), broth microplate as in Example 4 (Example 6, Table 41). Conditions: 18 h, origin pig. As for the experimental part: as §5, §1
In a manner similar to that described in Example 4, antibacterial activity of the invention compound was determined. The bacterium used for the test was Pasteurella Kobe-6 (origin: pig; Pasteurella multocida).

Experiment [7] deals with Staphylococcus aureus TI-1. Description: Antibacterial activity (IC), broth microplate as in Example 4 (Example 5, Table 40). Conditions: TI1, 18 h. As for the experimental part:
as §5, §1
In a manner similar to that described in Example 4, antibacterial activity of the invention compound was determined. The bacterium used for the test was Staphylococcus aureus TI-1.

The mark [8] stands for this setting: Enterococcus Seriolicida KG86050.
[9] abbreviates: Enterococcus Seriolicida MS89060.
[10] abbreviates: Enterococcus Seriolicida MS89064.
Setting [11] is: Enterococcus Seriolicida MS89066.
[12] abbreviates: Enterococcus Seriolicida MS89068.
[13] abbreviates: Enterococcus Seriolicida SE94-001.
Setting [14] is: Enterococcus Seriolicida SE94-003.
[15] abbreviates: Enterococcus Seriolicida SE94-004.
[16] abbreviates: Enterococcus Seriolicida SE94-005.

Converted amounts (≈) assume the structure as drawn. Where only a bound is given, the exact number is not on record here.

In the case of `CC(Oc1cccc(Oc2ccc(Br)cc2F)c1)C(=O)C(C#N)c1cccc(Br)c1` (stereo not drawn) [Compound No. 111, 4-[3-(4-bromo-2-fluorophenoxy)phenoxy]-2-(3-bromophenyl)-3-oxopentanonitrile], the MIC in experiment [1] is 1 to 10 µg/mL (≈ 1.88 to 18.8 µM); against Pasteurella from fish, 10 to 100 µg/mL (≈ 18.8 to 188 µM); against Enterococcus from fish, 1 to 10 µg/mL (≈ 1.88 to 18.8 µM); in [2], 1 to 10 µg/mL (≈ 1.88 to 18.8 µM); in [3] (MRSA strain 891179), 1 to 10 µg/mL (≈ 1.88 to 18.8 µM); in experiment [3] (MRSA strain 891185), 1 to 10 µg/mL (≈ 1.88 to 18.8 µM). Besides, the MIC in experiment [3] (MRSA strain 891187) lay in the range of 1 to 10 µg/mL (≈ 1.88 to 18.8 µM); in experiment [3] (MRSA strain 891192), 1 to 10 µg/mL (≈ 1.88 to 18.8 µM); in experiment [3] (MRSA strain 900048), 1 to 10 µg/mL (≈ 1.88 to 18.8 µM); in experiment [3] (MRSA strain 900056), 1 to 10 µg/mL (≈ 1.88 to 18.8 µM); in [4], 10 to 100 µg/mL (≈ 18.8 to 188 µM). Besides, the IC is ≤100 (MIC-equivalent values obtained at the succesive 2-fold dilution of the sample are 100-10 µg/ml) with Pasteurella from fish (Pasteurella piscicida KP94-04); ≤100 (MIC-equivalent values obtained at the succesive 2-fold dilution of the sample are 100-10 µg/ml) in the experiment on Pasteurella from fish (Pasteurella piscicida KP94-05); ≤100 (MIC-equivalent values obtained at the succesive 2-fold dilution of the sample are 100-10 µg/ml) with Pasteurella from fish (Pasteurella piscicida KP94-06); ≤10 (10-1 µg/ml) with Enterococcus from fish (Enterococcus Seriolicida HI); ≤10 (10-1 µg/ml) in the experiment on Enterococcus from fish (setting [8]); ≤10 (10-1 µg/ml) with Enterococcus from fish (setting [9]). Also, the IC in the experiment with Enterococcus from fish (setting [10]), in the experiment with Enterococcus from fish (setting [11]), in the experiment with Enterococcus from fish (setting [12]), with Enterococcus from fish (setting [13]), in the experiment on Enterococcus from fish (setting [14]) and with Enterococcus from fish (setting [15]) was ≤10 (10-1 µg/ml) in each case. In the experiment on Enterococcus from fish (setting [16]), the IC was ≤10 (10-1 µg/ml).
In the case of `CC(Oc1ccc(Oc2ncc(Cl)cc2Cl)cc1)C(=O)C(C#N)c1nc(Cl)cc(Cl)n1` (stereo not drawn) [compound 20], the MIC fell in the range of 10 to 100 µg/mL (≈ 20.1 to 201 µM) in experiment [5], 10 to 100 µg/mL (≈ 20.1 to 201 µM) in experiment [6] and 1 to 10 µg/mL (≈ 2.01 to 20.1 µM) in experiment [7].
Regarding `CC(Oc1cccc(Oc2ccc(C(F)(F)F)cc2Cl)c1)C(=O)C(C#N)c1ccccc1` (stereo not drawn) [Compound No. 105, 4-[3-(2-chloro-4-trifluoromethylphenoxy)phenoxy]-3-oxo-2-phenylpentanonitrile], the MIC in experiment [1] lay within 1 to 10 µg/mL (≈ 2.17 to 21.7 µM); in the experiment on Pasteurella from fish it was 10 to 100 µg/mL (≈ 21.7 to 217 µM); against Enterococcus from fish, 1 to 10 µg/mL (≈ 2.17 to 21.7 µM); in [2], 1 to 10 µg/mL (≈ 2.17 to 21.7 µM); in [3] (MRSA strain 891179), 1 to 10 µg/mL (≈ 2.17 to 21.7 µM); in experiment [3] (MRSA strain 891185), 1 to 10 µg/mL (≈ 2.17 to 21.7 µM). Further, the MIC in [3] (MRSA strain 891187) fell in the range of 1 to 10 µg/mL (≈ 2.17 to 21.7 µM); in experiment [3] (MRSA strain 891192), 1 to 10 µg/mL (≈ 2.17 to 21.7 µM); in [3] (MRSA strain 900048), 1 to 10 µg/mL (≈ 2.17 to 21.7 µM); in experiment [3] (MRSA strain 900056), 1 to 10 µg/mL (≈ 2.17 to 21.7 µM); in experiment [4] it was 10 to 100 µg/mL (≈ 21.7 to 217 µM). Further, the IC with Pasteurella from fish (Pasteurella piscicida KP94-04) is on record as ≤100 (MIC-equivalent values obtained at the succesive 2-fold dilution of the sample are 100-10 µg/ml); in the experiment with Pasteurella from fish (Pasteurella piscicida KP94-05) it was ≤100 (MIC-equivalent values obtained at the succesive 2-fold dilution of the sample are 100-10 µg/ml); in the experiment on Pasteurella from fish (Pasteurella piscicida KP94-06) it was ≤100 (MIC-equivalent values obtained at the succesive 2-fold dilution of the sample are 100-10 µg/ml); with Enterococcus from fish (Enterococcus Seriolicida HI) it was ≤10 (10-1 µg/ml); in the experiment with Enterococcus from fish (setting [8]), ≤10 (10-1 µg/ml); in the experiment with Enterococcus from fish (setting [9]), ≤10 (10-1 µg/ml). Moreover, the IC in the experiment with Enterococcus from fish (setting [10]), with Enterococcus from fish (setting [11]), in the experiment with Enterococcus from fish (setting [12]), in the experiment with Enterococcus from fish (setting [13]), in the experiment with Enterococcus from fish (setting [14]) and in the experiment with Enterococcus from fish (setting [15]) was ≤10 (10-1 µg/ml) in each case. For the same molecule, the IC in the experiment with Enterococcus from fish (setting [16]) was ≤10 (10-1 µg/ml).
Turning to `CC(Oc1ccc(Oc2ccc(C(F)(F)F)cn2)cc1)C(=O)C(C#N)c1ccc(Cl)cc1Cl` (stereo not drawn) [Compound No. 1], the MIC in experiment [5] was in the range of 1 to 10 µg/mL (≈ 2.02 to 20.2 µM); in experiment [6], 10 to 100 µg/mL (≈ 20.2 to 202 µM); in experiment [7] it was 1 to 10 µg/mL (≈ 2.02 to 20.2 µM).
Consider `COc1cccc(C(C#N)C(=O)C(C)Oc2ccc(Oc3ncc(C(F)(F)F)cc3Cl)cc2)c1` (stereo not drawn) [compound 17], for which the MIC in [5], in experiment [6] and in [7] was 10 to 100 µg/mL (≈ 20.4 to 204 µM) in each case.
As for `CC(Oc1cccc(Oc2ccc(Br)cc2F)c1)C(=O)C(C#N)c1ccc(Cl)c(Cl)c1` (stereo not drawn) [Compound No. 109, 4-[3-(4-bromo-2-fluorophenoxy)phenoxy]-2-(3,4-dichlorophenyl)-3-oxopentanonitrile], the MIC was not above 1 µg/mL in [1]; 1 to 10 µg/mL (≈ 1.91 to 19.1 µM) in the experiment on Pasteurella from fish; 1 to 10 µg/mL (≈ 1.91 to 19.1 µM) with Enterococcus from fish; 1 to 10 µg/mL (≈ 1.91 to 19.1 µM) in experiment [2]; 1 to 10 µg/mL (≈ 1.91 to 19.1 µM) in experiment [3] (MRSA strain 891179); 1 to 10 µg/mL (≈ 1.91 to 19.1 µM) in experiment [3] (MRSA strain 891185). Moreover, the MIC in experiment [3] (MRSA strain 891187), in [3] (MRSA strain 891192), in experiment [3] (MRSA strain 900048), in experiment [3] (MRSA strain 900056) and in [4] was 1 to 10 µg/mL (≈ 1.91 to 19.1 µM) in each case. Further, the IC with Enterococcus from fish (Enterococcus Seriolicida HI), in the experiment on Enterococcus from fish (setting [8]), in the experiment with Enterococcus from fish (setting [9]), with Enterococcus from fish (setting [10]), in the experiment on Enterococcus from fish (setting [11]) and in the experiment on Enterococcus from fish (setting [12]) was ≤10 (10-1 µg/ml) throughout. For the same molecule, the IC in the experiment with Enterococcus from fish (setting [13]), in the experiment on Enterococcus from fish (setting [14]), in the experiment with Enterococcus from fish (setting [15]) and in the experiment with Enterococcus from fish (setting [16]) was ≤10 (10-1 µg/ml) throughout.
On to `CC(Oc1ccc(Oc2ncc(C(F)(F)F)cc2Cl)cc1)C(=O)C(C#N)c1ccc(F)c(F)c1` (stereo not drawn) [compound 27], for which the MIC was in the range of 1 to 10 µg/mL (≈ 2.01 to 20.1 µM) in experiment [5], 10 to 100 µg/mL (≈ 20.1 to 201 µM) in experiment [6] and 1 to 10 µg/mL (≈ 2.01 to 20.1 µM) in experiment [7].

The values above are taken from EP0768085A1, “ANTIBACTERIAL AGENT” (DAIICHI PHARMACEUTICAL CO., LTD., priority 1994, dated 1996).
